# Values of other authors, collected in patent US20250367263A9, “Therapeutic Regimens and Methods for Treatment of Cardiovascular Risk Factors using a GLP-1R and GCGR Agonist” (Spitfire Pharma LLC, priority 2022, published 2025).
structure (smiles),measurement,setting,value
CCCCCCCCCCCCCCCC(=O)N[C@@H](CCC(=O)NCCCC[C@H](NC(=O)[C@H](CC(=O)O)NC(=O)[C@H](CO)NC(=O)[C@@H](NC(=O)[C@H](Cc1ccccc1)NC(=O)[C@@H](NC(=O)CNC(=O)[C@H](CCC(N)=O)NC(=O)[C@H](CO)NC(=O)[C@@H](N)Cc1c[nH]cn1)[C@@H](C)O)[C@@H](C)O)C(=O)N[C@@H](CO)C(=O)N[C@@H](CCC(=O)O)C(=O)N[C@@H](Cc1ccc(O)cc1)C(=O)N[C@@H](CC(C)C)C(=O)N[C@@H](CC(=O)O)C(=O)N[C@@H](CO)C(=O)N[C@@H](CCC(=O)O)C(=O)N[C@@H](CCCNC(=N)N)C(=O)N[C@@H](C)C(=O)N[C@@H](CCCNC(=N)N)C(=O)N[C@@H](CC(=O)O)C(=O)N[C@@H](Cc1ccccc1)C(=O)N[C@H](C(=O)N[C@@H](C)C(=O)N[C@@H](Cc1c[nH]c2ccccc12)C(=O)N[C@@H](CC(C)C)C(=O)N[C@@H](CCC(=O)O)C(=O)N[C@@H](C)C(=O)NCC(=O)NCC(=O)O)C(C)C)C(=O)O [cotadutide],reduction in liver fat content,6 weeks,39%
same,"NASH-related alanine aminotransferase (ALT) reduction, versus liraglutide alone","human, in vivo",greater improvement
